Patent US11214594B2, “Antimicrobial peptide having synergistic antibacterial effect with antibiotics on multidrug resistant bacteria, and use thereof” (priority 2016, dated 2022)
≈ marks a conversion by molar mass, not a printed value. Where a SMILES comes first, the peptide text is derived from it. [ ]: non-standard residue; d: D form.

Assays:
A. baumannii [1] = test: microbe, parasite or virus in culture; assay type: cell-based, Acinetobacter baumannii; conditions: for Antibacterial activity relative to PapMA-1: A. baumannii and S. typhimurium
In short: (§1)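 Broth microdilution in MH medium: strains diluted to 2×10^6 CFU were mixed with equal volumes of twofold serial peptide dilutions in MH medium. MIC was taken as the lowest peptide concentration preventing bacterial growth.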

MDRAB 12035 = test: microbe, parasite or virus in culture; assay type: cell-based, Acinetobacter baumannii
In short: as §1

S. typhimurium = test: microbe, parasite or virus in culture; assay type: cell-based, Salmonella typhimurium
In short: as §1

S. aureus = test: microbe, parasite or virus in culture; assay type: cell-based, Staphylococcus aureus
In short: as §1

MDREC 1229 = test: MIC of antibiotic during combined treatment with antimicrobial peptide; assay type: cell-based, Escherichia coli
In short: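 Strains in MH medium at 2×10^6 CFU/ml were mixed with peptide diluted stepwise (2:1) from its MIC, then antibiotic dilutions in MH medium were added to give the antibiotic MIC. The reversed set-up, peptide titrated against fixed antibiotic, gave the peptide MIC.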

A. baumannii [2] = test: as above; assay type: cell-based, Acinetobacter baumannii; conditions: for Synergistic effect of antibacterial activity with existing antibiotics compared with PapMA-1: A. baumannii and MDRAB 12035; for Antibiotic MIC, Erythromycin / Antibiotic MIC, Linezolid / Antibiotic MIC, Vancomycin: A. baumannii
In short: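 Checkerboard-type MIC of peptide–antibiotic mixtures in MH medium: the antibiotic was serially diluted in MH medium and added to wells, then the reversed arrangement was also tested.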

[3] = system: multi-drug resistant bacteria; test: MIC, summary statements for multi-drug resistant bacteria; assay type: cell-based
In short: as §1

[4] = peptide treatment concentration 1 μg/ml
[5] = peptide treatment concentration 2 μg/ml
[6] = peptide treatment concentration 4 μg/ml
[7] = peptide treatment concentration 6 μg/ml
[8] = peptide treatment concentration 8 μg/ml
[9] = peptide treatment concentration 16 μg/ml
[10] = peptide treatment concentration 32 μg/ml
[11] = peptide treatment concentration 64 μg/ml
[12] = combined with peptide at 1 μg/ml
[13] = combined with peptide at 2 μg/ml
[14] = combined with peptide at 4 μg/ml
[15] = combined with peptide at 6 μg/ml
[16] = combined with peptide at 8 μg/ml
[17] = combined with peptide at 16 μg/ml
[18] = combined with peptide at 32 μg/ml
[19] = combined with peptide at 64 μg/ml

CC[C@H](C)[C@H](NC(=O)[C@H](CCCCN)NC(=O)[C@H](Cc1c[nH]c2ccccc12)NC(=O)[C@@H](N)CCCNC(=N)N)C(=O)N[C@@H](Cc1ccccc1)C(=O)N[C@@H](CCCCN)C(=O)N[C@@H](CCCCN)C(=O)N[C@H](C(=O)N1CCC[C@H]1C(=O)N[C@@H](CCCCN)C(=O)N[C@@H](CC(C)C)C(=O)N[C@@H](CC(C)C)C(=O)N[C@@H](Cc1c[nH]cn1)C(=O)N[C@@H](CCC(=O)O)C(=O)N[C@@H](Cc1ccccc1)C(=O)N[C@@H](CCCCN)C(=O)N[C@@H](CCCCN)C(=O)N[C@@H](Cc1ccccc1)C(N)=O)[C@@H](C)CC [PapMA-12, RWK IFK KIP KLL HEF KKF-NH2] (H-RWKIFKKIPKLLHEFKKF-NH2; N-terminus assumed)
Minimal inhibitory concentration MIC (A. baumannii [1]): 8 µg/mL (≈ 3.35 µM)
Antibacterial activity relative to PapMA-1 (A. baumannii [1]): at least twice as high
Minimal inhibitory concentration MIC (MDRAB 12035): 8 µg/mL (≈ 3.35 µM)
Peptide MIC, peptide alone (MDRAB 12035): 8 µg/mL
Minimal inhibitory concentration MIC (S. typhimurium): 16 µg/mL (≈ 6.71 µM)
Minimal inhibitory concentration MIC (S. aureus): >128 µg/mL
Antibiotic MIC, Erythromycin (MDREC 1229; [4]): 128 µg/mL
Antibiotic MIC, Linezolid (MDREC 1229; [4]): >128 µg/mL
Antibiotic MIC, Vancomycin (MDREC 1229; [4]): >128 µg/mL
Antibiotic MIC, Erythromycin (MDREC 1229; [5]): 32 µg/mL
Antibiotic MIC, Linezolid (MDREC 1229; [5]): 128 µg/mL
Antibiotic MIC, Vancomycin (MDREC 1229; [5]): >128 µg/mL
Antibiotic MIC, Erythromycin (MDREC 1229; [6]): 8 µg/mL
Antibiotic MIC, Linezolid (MDREC 1229; [6]): 32 µg/mL
Antibiotic MIC, Vancomycin (MDREC 1229; [6]): 128 µg/mL
Antibiotic MIC, Erythromycin (MDREC 1229; [7]): 4 µg/mL
Antibiotic MIC, Linezolid (MDREC 1229; [7]): 16 µg/mL
Antibiotic MIC, Vancomycin (MDREC 1229; [7]): 32 µg/mL
Antibiotic MIC, Erythromycin (MDREC 1229; [8]): 1 µg/mL
Antibiotic MIC, Linezolid (MDREC 1229; [8]): 16 µg/mL
Antibiotic MIC, Vancomycin (MDREC 1229; [8]): 8 µg/mL
Antibiotic MIC, Erythromycin (MDREC 1229; [9]): 0 µg/mL
Antibiotic MIC, Linezolid (MDREC 1229; [9]): 0 µg/mL
Antibiotic MIC, Vancomycin (MDREC 1229; [9]): 0 µg/mL
Antibiotic MIC, Erythromycin (MDREC 1229; [10]): 0 µg/mL
Antibiotic MIC, Linezolid (MDREC 1229; [10]): 0 µg/mL
Antibiotic MIC, Vancomycin (MDREC 1229; [10]): 0 µg/mL
Antibiotic MIC, Erythromycin (MDREC 1229; [11]): 0 µg/mL
Antibiotic MIC, Linezolid (MDREC 1229; [11]): 0 µg/mL
Antibiotic MIC, Vancomycin (MDREC 1229; [11]): 0 µg/mL
Synergistic effect of antibacterial activity with existing antibiotics compared with PapMA-1 (A. baumannii [2]): higher level than the PapMA-1 peptide
Antibiotic MIC, Erythromycin (A. baumannii [2]; [12]): 16 µg/mL
Antibiotic MIC, Linezolid (A. baumannii [2]; [12]): 128 µg/mL
Antibiotic MIC, Vancomycin (A. baumannii [2]; [12]): >128 µg/mL
Antibiotic MIC, Erythromycin (A. baumannii [2]; [13]): 8 µg/mL
Antibiotic MIC, Linezolid (A. baumannii [2]; [13]): 32 µg/mL
Antibiotic MIC, Vancomycin (A. baumannii [2]; [13]): 64 µg/mL
Antibiotic MIC, Erythromycin (A. baumannii [2]; [14]): 1 µg/mL
Antibiotic MIC, Linezolid (A. baumannii [2]; [14]): 4 µg/mL
Antibiotic MIC, Vancomycin (A. baumannii [2]; [14]): 8 µg/mL
Antibiotic MIC, Erythromycin (A. baumannii [2]; [15]): 0.25 µg/mL
Antibiotic MIC, Linezolid (A. baumannii [2]; [15]): 1 µg/mL
Antibiotic MIC, Vancomycin (A. baumannii [2]; [15]): 2 µg/mL
Antibiotic MIC, Erythromycin (A. baumannii [2]; [16]): 0 µg/mL
Antibiotic MIC, Linezolid (A. baumannii [2]; [16]): 0 µg/mL
Antibiotic MIC, Vancomycin (A. baumannii [2]; [16]): 0 µg/mL
Antibiotic MIC, Erythromycin (A. baumannii [2]; [17]): 0 µg/mL
Antibiotic MIC, Linezolid (A. baumannii [2]; [17]): 0 µg/mL
Antibiotic MIC, Vancomycin (A. baumannii [2]; [17]): 0 µg/mL
Antibiotic MIC, Erythromycin (A. baumannii [2]; [18]): 0 µg/mL
Antibiotic MIC, Linezolid (A. baumannii [2]; [18]): 0 µg/mL
Antibiotic MIC, Vancomycin (A. baumannii [2]; [18]): 0 µg/mL
Antibiotic MIC, Erythromycin (A. baumannii [2]; [19]): 0 µg/mL
Antibiotic MIC, Linezolid (A. baumannii [2]; [19]): 0 µg/mL
Antibiotic MIC, Vancomycin (A. baumannii [2]; [19]): 0 µg/mL
Antibacterial activity relative to PapMA-1 [3]: twice to four times higher

CC[C@H](C)[C@H](NC(=O)[C@H](CCCCN)NC(=O)[C@H](Cc1c[nH]c2ccccc12)NC(=O)[C@@H](N)CCCNC(=N)N)C(=O)N[C@@H](Cc1ccccc1)C(=O)N[C@@H](CCCCN)C(=O)N[C@@H](CCCCN)C(=O)N[C@H](C(=O)N[C@H](CCCCN)C(=O)N[C@@H](CCCCN)C(=O)N[C@@H](CC(C)C)C(=O)N[C@@H](CC(C)C)C(=O)N[C@@H](Cc1c[nH]cn1)C(=O)N[C@@H](CCCCN)C(=O)N[C@@H](Cc1ccccc1)C(=O)N[C@@H](CCCCN)C(=O)N[C@@H](CCCCN)C(=O)N[C@@H](Cc1ccccc1)C(N)=O)[C@@H](C)CC [PapMA-17, RWK IFK KIk KLL HKF KKF-NH2] (H-RWKIFKKI[dK]KLLHKFKKF-NH2; N-terminus assumed)
Minimal inhibitory concentration MIC (A. baumannii [1]): 32 µg/mL (≈ 13.2 µM)
Peptide MIC, peptide alone (A. baumannii [1]): 32 µg/mL
Antibacterial activity relative to PapMA-1 (A. baumannii [1]): at least twice as high
Minimal inhibitory concentration MIC (MDRAB 12035): 32 µg/mL (≈ 13.2 µM)
Peptide MIC, peptide alone (MDRAB 12035): 32 µg/mL
Minimal inhibitory concentration MIC (S. typhimurium): 32 µg/mL (≈ 13.2 µM)
Minimal inhibitory concentration MIC (S. aureus): >128 µg/mL
Antibiotic MIC, Erythromycin (MDREC 1229; [4]): >128 µg/mL
Antibiotic MIC, Linezolid (MDREC 1229; [4]): >128 µg/mL
Antibiotic MIC, Vancomycin (MDREC 1229; [4]): >128 µg/mL
Antibiotic MIC, Erythromycin (MDREC 1229; [5]): 32 µg/mL
Antibiotic MIC, Linezolid (MDREC 1229; [5]): >128 µg/mL
Antibiotic MIC, Vancomycin (MDREC 1229; [5]): >128 µg/mL
Antibiotic MIC, Erythromycin (MDREC 1229; [6]): 16 µg/mL
Antibiotic MIC, Linezolid (MDREC 1229; [6]): 64 µg/mL
Antibiotic MIC, Vancomycin (MDREC 1229; [6]): 64 µg/mL
Antibiotic MIC, Erythromycin (MDREC 1229; [7]): 8 µg/mL
Antibiotic MIC, Linezolid (MDREC 1229; [7]): 16 µg/mL
Antibiotic MIC, Vancomycin (MDREC 1229; [7]): 32 µg/mL
Antibiotic MIC, Erythromycin (MDREC 1229; [8]): 4 µg/mL
Antibiotic MIC, Linezolid (MDREC 1229; [8]): 16 µg/mL
Antibiotic MIC, Vancomycin (MDREC 1229; [8]): 16 µg/mL
Antibiotic MIC, Erythromycin (MDREC 1229; [9]): 0 µg/mL
Antibiotic MIC, Linezolid (MDREC 1229; [9]): 0 µg/mL
Antibiotic MIC, Vancomycin (MDREC 1229; [9]): 0 µg/mL
Antibiotic MIC, Erythromycin (MDREC 1229; [10]): 0 µg/mL
Antibiotic MIC, Linezolid (MDREC 1229; [10]): 0 µg/mL
Antibiotic MIC, Vancomycin (MDREC 1229; [10]): 0 µg/mL
Antibiotic MIC, Erythromycin (MDREC 1229; [11]): 0 µg/mL
Antibiotic MIC, Linezolid (MDREC 1229; [11]): 0 µg/mL
Antibiotic MIC, Vancomycin (MDREC 1229; [11]): 0 µg/mL
Synergistic effect of antibacterial activity with existing antibiotics compared with PapMA-1 (A. baumannii [2]): level similar to that of PapMA-1 peptide
Antibiotic MIC, Erythromycin (A. baumannii [2]; [12]): 32 µg/mL
Antibiotic MIC, Linezolid (A. baumannii [2]; [12]): >128 µg/mL
Antibiotic MIC, Vancomycin (A. baumannii [2]; [12]): >128 µg/mL
Antibiotic MIC, Erythromycin (A. baumannii [2]; [13]): 16 µg/mL
Antibiotic MIC, Linezolid (A. baumannii [2]; [13]): 64 µg/mL
Antibiotic MIC, Vancomycin (A. baumannii [2]; [13]): >128 µg/mL
Antibiotic MIC, Erythromycin (A. baumannii [2]; [14]): 8 µg/mL
Antibiotic MIC, Linezolid (A. baumannii [2]; [14]): 32 µg/mL
Antibiotic MIC, Vancomycin (A. baumannii [2]; [14]): 64 µg/mL
Antibiotic MIC, Erythromycin (A. baumannii [2]; [15]): 2 µg/mL
Antibiotic MIC, Linezolid (A. baumannii [2]; [15]): 32 µg/mL
Antibiotic MIC, Vancomycin (A. baumannii [2]; [15]): 32 µg/mL
Antibiotic MIC, Erythromycin (A. baumannii [2]; [16]): 0.25 µg/mL
Antibiotic MIC, Linezolid (A. baumannii [2]; [16]): 8 µg/mL
Antibiotic MIC, Vancomycin (A. baumannii [2]; [16]): 16 µg/mL
Antibiotic MIC, Erythromycin (A. baumannii [2]; [17]): 0.125 µg/mL
Antibiotic MIC, Linezolid (A. baumannii [2]; [17]): 2 µg/mL
Antibiotic MIC, Vancomycin (A. baumannii [2]; [17]): 4 µg/mL
Antibiotic MIC, Erythromycin (A. baumannii [2]; [18]): 0 µg/mL
Antibiotic MIC, Linezolid (A. baumannii [2]; [18]): 0 µg/mL
Antibiotic MIC, Vancomycin (A. baumannii [2]; [18]): 0 µg/mL
Antibiotic MIC, Erythromycin (A. baumannii [2]; [19]): 0 µg/mL
Antibiotic MIC, Linezolid (A. baumannii [2]; [19]): 0 µg/mL
Antibiotic MIC, Vancomycin (A. baumannii [2]; [19]): 0 µg/mL
Antibacterial activity relative to PapMA-1 [3]: twice to four times higher
